Data from patent publication US20220348567A1, “NOVEL OXADIAZOLE COMPOUNDS CONTAINING 5- MEMBERED HETEROAROMATIC RING FOR CONTROLLING OR PREVENTING PHYTOPATHOGENIC FUNGI” (PI INDUSTRIES LTD., priority 2019, published 2022).

Key:
Format in all cases: cell-based
[1] = test system: Botrytis cinerea; experiment: Botrytis cinerea (gray mold) in vitro radial growth test on potato dextrose agar; conditions: 300 ppm; 7 days, 22° C., 90% relative humidity
[2] = test system: Parastagonospora nodorum; experiment: Parastagonospora nodorum (PARANO) microtiter growth inhibition assay, OD600; conditions: 18° C., 15-18 days, read-out: control (growth inhibition by OD600)
Experimental: Potato dextrose (PDB) liquid medium (Difco) containing a […] (10^5 spores/ml) spore suspension was prepared. For the inhibition assay, each test compound was solved in dimethyl sulfoxide. 100 μl of the test media-solution was added to a 96-well microtiter plate, consequently, the same volume (100 μl) of spore suspension was added to the well making the final test concentrations and the plate was incubated at 18° C. for 15-18 days. The growth inhibition was evaluated by measuring the OD600. Percent inhibition was calculated with the below formula: I=([…])*100 Where T=treatment, C═control, and B=blank

[3] = test system: Fusarium culmorum; experiment: Fusarium culmorum (foot rot of cereals) in vitro radial growth test on potato dextrose agar; conditions: 300 ppm; 7 days, 25° C., 60% relative humidity
Experimental: Compounds were dissolved in 0.3% dimethyl sulfoxide and then added to potato dextrose agar medium just prior to dispensing it into petri dishes. 5 mL medium with the compound in the desired concentration was dispensed into 60 mm sterile petri-plates. After solidification, each plate was seeded with a 5 mm size mycelial disc taken from the periphery of an actively growing virulent culture plate. Plates were incubated in growth chambers at 25° C. temperature and 60% relative humidity for seven days and then the radial growth was measured and compared to the one of the untreated control.

CS(=O)(=NC(=O)c1ccn(-c2ccc(-c3noc(C(F)(F)F)n3)cc2)c1)c1ccncc1F (stereo not drawn) [Compound 28, N-((3-fluoropyridin-4-yl)(methyl)(oxo)-λ^6-sulfanylidene)-1-(4-(5-(trifluoromethyl)-1,2,4-oxadiazol-3-yl)phenyl)-1H-pyrrole-3-carboxamide]
≥ 70%: control (radial growth compared to untreated control) [1] | inhibition at 300 ppm [2] | control (radial growth compared to untreated control) [3]
